Numbers after ± are expanded uncertainties.
Experiment: activity coefficient (dimensionless); of the first substance listed, at infinite dilution; xn = mol fraction of the nth substance listed
Conditions: 101 kPa, Liquid, Chromatography, x1 = 0

| Compound | activity coefficient (318.15 K) | activity coefficient (328.15 K) | activity coefficient (338.15 K) | activity coefficient (348.15 K) | activity coefficient (358.15 K) | activity coefficient (368.15 K) |
| --- | --- | --- | --- | --- | --- | --- |
| CCC(C)(C)OC [2-methoxy-2-methylbutane] + COCC[N+]1(C)CCCC1.O=S(=O)([N-]S(=O)(=O)C(F)(F)F)C(F)(F)F | 4.08 ± 0.28 | 4.06 ± 0.28 | 4.05 ± 0.28 | 4.03 ± 0.27 | 4.01 ± 0.27 | 4 ± 0.27 |
| CCCCCC [hexane] + COCC[N+]1(C)CCCC1.O=S(=O)([N-]S(=O)(=O)C(F)(F)F)C(F)(F)F | 19 ± 1.3 | 17.8 ± 1.2 | 16.7 ± 1.1 | 15.9 ± 1.1 | 15 ± 1 | 14.3 ± 1 |
| CCCCC [pentane] + COCC[N+]1(C)CCCC1.O=S(=O)([N-]S(=O)(=O)C(F)(F)F)C(F)(F)F | 13.4 ± 0.9 | 12.7 ± 0.9 | 12.1 ± 0.8 | 11.5 ± 0.8 | 11 ± 0.8 | 10.5 ± 0.7 |
| CCC(C)O (centres undefined) [butan-2-ol] + COCC[N+]1(C)CCCC1.O=S(=O)([N-]S(=O)(=O)C(F)(F)F)C(F)(F)F | 2.4 ± 0.2 | 2.19 ± 0.15 | 2 ± 0.14 | 1.85 ± 0.12 | 1.72 ± 0.12 | 1.61 ± 0.11 |
| C1CCCCCC1 [cycloheptane] + COCC[N+]1(C)CCCC1.O=S(=O)([N-]S(=O)(=O)C(F)(F)F)C(F)(F)F | 15.3 ± 1 | 14.1 ± 1 | 13.1 ± 0.9 | 12.3 ± 0.8 | 11.5 ± 0.8 | 10.8 ± 0.7 |
| CCCCCCCCC [nonane] + COCC[N+]1(C)CCCC1.O=S(=O)([N-]S(=O)(=O)C(F)(F)F)C(F)(F)F | 58.1 ± 4 | 52.9 ± 3.6 | 48.4 ± 3.3 | 44.3 ± 3 | 41 ± 2.8 | 37.8 ± 2.6 |
| CCCOCCC [dipropyl ether] + COCC[N+]1(C)CCCC1.O=S(=O)([N-]S(=O)(=O)C(F)(F)F)C(F)(F)F | 7.22 ± 0.49 | 7.03 ± 0.48 | 6.82 ± 0.46 | 6.64 ± 0.45 | 6.47 ± 0.44 | 6.32 ± 0.43 |
| CC1CCCCC1 [methylcyclohexane] + COCC[N+]1(C)CCCC1.O=S(=O)([N-]S(=O)(=O)C(F)(F)F)C(F)(F)F | 15.4 ± 1.1 | 14.4 ± 1 | 13.5 ± 0.9 | 12.7 ± 0.9 | 12 ± 0.8 | 11.2 ± 0.8 |
| C=CCCCCCC [oct-1-ene] + COCC[N+]1(C)CCCC1.O=S(=O)([N-]S(=O)(=O)C(F)(F)F)C(F)(F)F | 20.8 ± 1.4 | 19.5 ± 1.3 | 18.2 ± 1.2 | 17.3 ± 1.2 | 16.3 ± 1.1 | 15.6 ± 1.1 |
| Cc1ccccc1 [toluene] + COCC[N+]1(C)CCCC1.O=S(=O)([N-]S(=O)(=O)C(F)(F)F)C(F)(F)F | 1.48 ± 0.1 | 1.5 ± 0.1 | 1.51 ± 0.1 | 1.53 ± 0.1 | 1.55 ± 0.1 | 1.56 ± 0.1 |
| C#CCCCC [1-hexyne] + COCC[N+]1(C)CCCC1.O=S(=O)([N-]S(=O)(=O)C(F)(F)F)C(F)(F)F | 3.29 ± 0.22 | 3.29 ± 0.22 | 3.28 ± 0.22 | 3.28 ± 0.22 | 3.28 ± 0.22 | 3.27 ± 0.22 |
| CCC[N+](=O)[O-] [1-nitropropane] + COCC[N+]1(C)CCCC1.O=S(=O)([N-]S(=O)(=O)C(F)(F)F)C(F)(F)F | 0.74 ± 0.05 | 0.742 ± 0.049 | 0.743 ± 0.049 | 0.744 ± 0.049 | 0.746 ± 0.049 | 0.747 ± 0.049 |
| CC(C)CO [2-methyl-1-propanol] + COCC[N+]1(C)CCCC1.O=S(=O)([N-]S(=O)(=O)C(F)(F)F)C(F)(F)F | 2.76 ± 0.19 | 2.46 ± 0.17 | 2.2 ± 0.15 | 2.01 ± 0.14 | 1.84 ± 0.12 | 1.7 ± 0.11 |
| CC(C)=O [acetone] + COCC[N+]1(C)CCCC1.O=S(=O)([N-]S(=O)(=O)C(F)(F)F)C(F)(F)F | 0.47 ± 0.04 | 0.48 ± 0.04 | 0.49 ± 0.04 | 0.5 ± 0.04 | 0.51 ± 0.04 | 0.52 ± 0.04 |
